Measured values published in ChEMBL document CHEMBL3885881, “DrugMatrix”.

Species: Rattus norvegicus
Test: DrugMatrix - Regimen: Daily Repeat
Format: toxicity, organism-based, Sprague-Dawley
Design: regimen Daily Repeat, gender Male, age 6-8 weeks
Conditions: in vivo, po, route oral GAVAGE, vehicle .5 % CMC; for ABSOLUTE BASOPHIL / ABSOLUTE EOSINOPHIL / ABSOLUTE LYMPHOCYTE / ABSOLUTE MONOCYTE / ABSOLUTE SEGMENTED NEUTROPHIL / BASOPHIL / EOSINOPHIL / ERYTHROCYTE COUNT / HEMATOCRIT / HEMOGLOBIN / LEUKOCYTE COUNT / LYMPHOCYTE / MEAN CORPUSCULAR HEMOGLOBIN / MEAN CORPUSCULAR HEMOGLOBIN CONCENTRATION / MEAN CORPUSCULAR VOLUME / MONOCYTE / NEUTROPHIL / NUCLEATED RED BLOOD CELLS / PLATELET COUNT: tissue Blood; for ALANINE AMINOTRANSFERASE / ALBUMIN / ALKALINE PHOSPHATASE / ASPARTATE AMINOTRANSFERASE / BLOOD UREA NITROGEN / CARBON DIOXIDE / CHLORIDE / CHOLESTEROL / CREATINE PHOSPHOKINASE / CREATININE / GLUCOSE / LACTATE DEHYDROGENASE / LIPASE / PHOSPHORUS / POTASSIUM / SODIUM / TOTAL BILIRUBIN / TOTAL PROTEIN / URIC ACID: tissue Plasma
[1] = 0 mg/kg, 72 h, dose level Control, time 3 day
[2] = 0 mg/kg, 120 h, dose level Control, time 5 day
[3] = 1 mg/kg, 72 h, dose level Low, time 3 day
[4] = 1 mg/kg, 120 h, dose level Low, time 5 day

Compound: OC(CCN1CCCCC1)(c1ccccc1)C1CCCCC1 (configuration not stated) [TRIHEXYPHENIDYL]
- ABSOLUTE BASOPHIL [1]: 0 CELLS/uL
- ABSOLUTE EOSINOPHIL [1]: 0 CELLS/uL
- ABSOLUTE LYMPHOCYTE [1]: 10913.67 CELLS/uL
- ABSOLUTE MONOCYTE [1]: 85.33 CELLS/uL
- ABSOLUTE SEGMENTED NEUTROPHIL [1]: 1401 CELLS/uL
- BASOPHIL [1]: 0%
- EOSINOPHIL [1]: 0%
- ERYTHROCYTE COUNT [1]: 5.57 x10E6/uL
- HEMATOCRIT [1]: 35.58%
- HEMOGLOBIN [1]: 13.8 G/DL
- LEUKOCYTE COUNT [1]: 12.4 x10E3/uL
- LYMPHOCYTE [1]: 88%
- MEAN CORPUSCULAR HEMOGLOBIN [1]: 24.78 pg
- MEAN CORPUSCULAR HEMOGLOBIN CONCENTRATION [1]: 38.82 G/DL
- MEAN CORPUSCULAR VOLUME [1]: 63.88 fL
- MONOCYTE [1]: 0.67%
- NEUTROPHIL [1]: 11.33%
- NUCLEATED RED BLOOD CELLS [1]: 0 /100WBC
- PLATELET COUNT [1]: 1162.33 x10E3/uL
- ALANINE AMINOTRANSFERASE [1]: 53 u/L
- ALBUMIN [1]: 4.17 G/DL
- ALKALINE PHOSPHATASE [1]: 374.5 u/L
- ASPARTATE AMINOTRANSFERASE [1]: 89.5 u/L
- BLOOD UREA NITROGEN [1]: 16.33 mg/dL
- CARBON DIOXIDE [1]: 29.17 mmol/L
- CHLORIDE [1]: 97.67 MEQ/L
- CHOLESTEROL [1]: 77 mg/dL
- CREATINE PHOSPHOKINASE [1]: 464.83 u/L
- CREATININE [1]: 0.14 mg/dL
- GLUCOSE [1]: 164 mg/dL
- LACTATE DEHYDROGENASE [1]: 155.5 u/L
- LIPASE [1]: 9.17 u/L
- PHOSPHORUS [1]: 12.4 mg/dL
- POTASSIUM [1]: 6.91 MEQ/L
- SODIUM [1]: 141.47 MEQ/L
- TOTAL BILIRUBIN [1]: 0.2 mg/dL
- TOTAL PROTEIN [1]: 5.95 G/DL
- URIC ACID [1]: 1.72 mg/dL
- ABSOLUTE BASOPHIL [2]: 0 CELLS/uL
- ABSOLUTE EOSINOPHIL [2]: 20.5 CELLS/uL
- ABSOLUTE LYMPHOCYTE [2]: 13871.67 CELLS/uL
- ABSOLUTE MONOCYTE [2]: 60.5 CELLS/uL
- ABSOLUTE SEGMENTED NEUTROPHIL [2]: 980.67 CELLS/uL
- BASOPHIL [2]: 0%
- EOSINOPHIL [2]: 0.17%
- ERYTHROCYTE COUNT [2]: 5.65 x10E6/uL
- HEMATOCRIT [2]: 35.63%
- HEMOGLOBIN [2]: 14.08 G/DL
- LEUKOCYTE COUNT [2]: 14.93 x10E3/uL
- LYMPHOCYTE [2]: 92.83%
- MEAN CORPUSCULAR HEMOGLOBIN [2]: 24.97 pg
- MEAN CORPUSCULAR HEMOGLOBIN CONCENTRATION [2]: 39.55 G/DL
- MEAN CORPUSCULAR VOLUME [2]: 63.13 fL
- MONOCYTE [2]: 0.33%
- NEUTROPHIL [2]: 6.67%
- NUCLEATED RED BLOOD CELLS [2]: 0 /100WBC
- PLATELET COUNT [2]: 1248.17 x10E3/uL
- ALANINE AMINOTRANSFERASE [2]: 45.17 u/L
- ALBUMIN [2]: 4.27 G/DL
- ALKALINE PHOSPHATASE [2]: 405.67 u/L
- ASPARTATE AMINOTRANSFERASE [2]: 74.17 u/L
- BLOOD UREA NITROGEN [2]: 15.5 mg/dL
- CARBON DIOXIDE [2]: 30.17 mmol/L
- CHLORIDE [2]: 100.67 MEQ/L
- CHOLESTEROL [2]: 57 mg/dL
- CREATINE PHOSPHOKINASE [2]: 239.5 u/L
- CREATININE [2]: 0.17 mg/dL
- GLUCOSE [2]: 165.67 mg/dL
- LACTATE DEHYDROGENASE [2]: 90.5 u/L
- LIPASE [2]: 8.83 u/L
- PHOSPHORUS [2]: 12.32 mg/dL
- POTASSIUM [2]: 7.03 MEQ/L
- SODIUM [2]: 142.65 MEQ/L
- TOTAL BILIRUBIN [2]: 0.18 mg/dL
- TOTAL PROTEIN [2]: 6.03 G/DL
- URIC ACID [2]: 1.98 mg/dL
- ABSOLUTE BASOPHIL [3]: 0 CELLS/uL
- ABSOLUTE EOSINOPHIL [3]: 0 CELLS/uL
- ABSOLUTE LYMPHOCYTE [3]: 14884.67 CELLS/uL
- ABSOLUTE MONOCYTE [3]: 0 CELLS/uL
- ABSOLUTE SEGMENTED NEUTROPHIL [3]: 848.67 CELLS/uL
- BASOPHIL [3]: 0%
- EOSINOPHIL [3]: 0%
- ERYTHROCYTE COUNT [3]: 5.35 x10E6/uL
- HEMATOCRIT [3]: 35.77%
- HEMOGLOBIN [3]: 14.27 G/DL
- LEUKOCYTE COUNT [3]: 15.73 x10E3/uL
- LYMPHOCYTE [3]: 94.33%
- MEAN CORPUSCULAR HEMOGLOBIN [3]: 26.7 pg
- MEAN CORPUSCULAR HEMOGLOBIN CONCENTRATION [3]: 39.87 G/DL
- MEAN CORPUSCULAR VOLUME [3]: 66.97 fL
- MONOCYTE [3]: 0%
- NEUTROPHIL [3]: 5.67%
- NUCLEATED RED BLOOD CELLS [3]: 0 /100WBC
- PLATELET COUNT [3]: 1285.67 x10E3/uL
- ALANINE AMINOTRANSFERASE [3]: 51.33 u/L
- ALBUMIN [3]: 4.33 G/DL
- ALKALINE PHOSPHATASE [3]: 449.67 u/L
- ASPARTATE AMINOTRANSFERASE [3]: 84 u/L
- BLOOD UREA NITROGEN [3]: 18.67 mg/dL
- CARBON DIOXIDE [3]: 27.33 mmol/L
- CHLORIDE [3]: 99.67 MEQ/L
- CHOLESTEROL [3]: 76 mg/dL
- CREATINE PHOSPHOKINASE [3]: 344.67 u/L
- CREATININE [3]: 0.14 mg/dL
- GLUCOSE [3]: 149.33 mg/dL
- LACTATE DEHYDROGENASE [3]: 254.67 u/L
- LIPASE [3]: 9.33 u/L
- PHOSPHORUS [3]: 13.83 mg/dL
- POTASSIUM [3]: 6.89 MEQ/L
- SODIUM [3]: 145.2 MEQ/L
- TOTAL BILIRUBIN [3]: 0.17 mg/dL
- TOTAL PROTEIN [3]: 6.23 G/DL
- URIC ACID [3]: 1.77 mg/dL
- ABSOLUTE BASOPHIL [4]: 0 CELLS/uL
- ABSOLUTE EOSINOPHIL [4]: 0 CELLS/uL
- ABSOLUTE LYMPHOCYTE [4]: 16182.67 CELLS/uL
- ABSOLUTE MONOCYTE [4]: 124 CELLS/uL
- ABSOLUTE SEGMENTED NEUTROPHIL [4]: 1360 CELLS/uL
- BASOPHIL [4]: 0%
- EOSINOPHIL [4]: 0%
- ERYTHROCYTE COUNT [4]: 5.66 x10E6/uL
- HEMATOCRIT [4]: 35.77%
- HEMOGLOBIN [4]: 14.3 G/DL
- LEUKOCYTE COUNT [4]: 17.67 x10E3/uL
- LYMPHOCYTE [4]: 91.67%
- MEAN CORPUSCULAR HEMOGLOBIN [4]: 25.23 pg
- MEAN CORPUSCULAR HEMOGLOBIN CONCENTRATION [4]: 40 G/DL
- MEAN CORPUSCULAR VOLUME [4]: 63.13 fL
- MONOCYTE [4]: 0.67%
- NEUTROPHIL [4]: 7.67%
- NUCLEATED RED BLOOD CELLS [4]: 0.33 /100WBC
- PLATELET COUNT [4]: 1182.33 x10E3/uL
- ALANINE AMINOTRANSFERASE [4]: 45.67 u/L
- ALBUMIN [4]: 4.2 G/DL
- ALKALINE PHOSPHATASE [4]: 394 u/L
- ASPARTATE AMINOTRANSFERASE [4]: 78.67 u/L
- BLOOD UREA NITROGEN [4]: 15.67 mg/dL
- CARBON DIOXIDE [4]: 26.67 mmol/L
- CHLORIDE [4]: 101 MEQ/L
- CHOLESTEROL [4]: 73.33 mg/dL
- CREATINE PHOSPHOKINASE [4]: 379.33 u/L
- CREATININE [4]: 0.13 mg/dL
- GLUCOSE [4]: 139.67 mg/dL
- LACTATE DEHYDROGENASE [4]: 370.67 u/L
- LIPASE [4]: 9 u/L
- PHOSPHORUS [4]: 12.93 mg/dL
- POTASSIUM [4]: 6.84 MEQ/L
- SODIUM [4]: 143 MEQ/L
- TOTAL BILIRUBIN [4]: 0.17 mg/dL
- TOTAL PROTEIN [4]: 5.9 G/DL
- URIC ACID [4]: 1.3 mg/dL
